Data: patent publication US10023592B2, “Bromodomain inhibitors” (Celgene Quanticel Research, Inc., priority 2013, dated 2018)

Experiments:
[1] = tested on: Raji, human Burkitts lymphoma cells; assay: Cell-MTS proliferation assay, Raji; type: cell-based; conditions: Homo sapiens, 168 hr
Method in brief: (§1)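 Seeded for ~90% confluence at 7 days (Raji 15,000, HL-60 5,000, NCI-H460 3,000 cells/well); compound added 24 h post-plating as 11-point dilution, 100 μM to 2.0 nM final.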

[2] = tested on: HL-60, human proleukemia cells; assay: Cell-MTS proliferation assay, HL-60; type: cell-based; conditions: Homo sapiens, 168 hr
Method in brief: as §1

[3] = tested on: NCI-H460, human non-small cell lung cancer cells; assay: Cell-MTS proliferation assay, NCI-H460; type: cell-based; conditions: Homo sapiens, 168 hr
Method: The Cell-MTS assay is a 7-day plate-based colorimetric assay which quantifies the amount of newly generated NADH in the presence or absence of test compound. The NADH level is used for the quantification of cancer cell proliferation.
Established cancer cell lines with a variety of driving mutations were obtained from American Type Culture Collection (ATCC) and routinely passaged according to ATCC protocols. For routine assay, these cells were seeded at densities which enabled ˜90% confluence after 7 days of culture. Raji, human Burkitts lymphoma cells, (cMYC) were seeded at 15,000 cells per 96-well. HL-60, human proleukemia cells, (NRAS, p16, p53, c-Myc amplified) were seeded at 5,000 cells per 96-well. NCI-H460, human non-small cell lung cancer cells, (KRAS, PIK3CA, STLK11, p16) were seeded at 3,000 cells per 96-well. 24 hr after plating, cells received an 11-point dilution of test compound with final concentration ranges from 100 μM to 2.0 nM. […] At the end of this incubation period, 80 μL of media is removed and 20 μL of CellTiter 96® AQueous Non-Radioactive Cell Proliferation Assay soln (Promega) was added. The cells were incubated until the OD490 was >0.6. IC50 values were calculated using the IDBS XLfit software package and include background subtracted OD490 values and normalization to DMSO controls. Cellular proliferation IC50 values were uploaded and archived using the Chem Biography Platform.

BRD4(BD1) = BRD4(BD1) (Homo sapiens (Human), UniProt O60885); assay: In vitro enzyme inhibition assay (BRD4 AlphaScreen); type: binding
Method in brief: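 His-tagged BRD4 tested by AlphaScreen for binding of biotinylated H4K5/8/12/16-tetraacetyl peptide. After 20 min at room temperature, streptavidin donor and nickel chelate acceptor beads added (5 μg/mL final each). IC50 determined.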

[4] = Raji, Cell-MTS, class symbols A/B/C
[5] = HL-60, Cell-MTS, class symbols A/B/C
[6] = NCI-H460, Cell-MTS, class symbols A/B/C
[7] = NCI-H460, Cell-MTS proliferation
[8] = in vitro enzyme inhibition assay
[9] = Cell-MTS proliferation, Raji cells
[10] = Cell-MTS proliferation, HL-60 cells
[11] = Cell-MTS proliferation, NCI-H460 cells

| SMILES | IC50 [1, 4] [nM] | IC50 [2, 5] [nM] | IC50 [3, 6] [nM] | IC50 (BRD4(BD1); class symbols A/B/C) [nM] | IC50 ([1]; Raji, Cell-MTS proliferation) [nM] | IC50 ([2]; HL-60, Cell-MTS proliferation) [nM] | IC50 [3, 7] [nM] | IC50 (BRD4(BD1); [8]) [nM] | IC50 [1, 9] [nM] | IC50 [2, 10] [nM] | IC50 [3, 11] [nM] |
| --- | --- | --- | --- | --- | --- | --- | --- | --- | --- | --- | --- |
| CCS(=O)(=O)Nc1ccc(Oc2ccc(F)cc2F)c(-c2cc(C(F)(F)F)c(=O)n(C)c2)c1 [Example 138, N-[4-(2,4-difluorophenoxy)-3-[1-methyl-6-oxo-5-(trifluoromethyl)pyridine-3-yl]phenyl]ethanesulfonamide] | < 500 | < 500 | > 5000 | < 500 | – | – | – | – | – | – | – |
| Cc1cc(-c2cc(OCc3ccccc3)cc(S(C)(=O)=O)c2)cn(C)c1=O [Example 324, 1,3-dimethyl-5-(3-methylsulfonyl-5-phenylmethoxyphenyl)pyridin-2-one] | – | – | – | – | 500 to 5000 | < 500 | > 5000 | < 500 | – | – | – |
| CCS(=O)(=O)Nc1cc(-c2cn(C)c(=O)c3ccc(-c4cnn(C)c4)cc23)c(OC)cc1F [Example 86, N-[2-fluoro-4-methoxy-5-[2-methyl-6-(1-methylpyrazol-4-yl)-1-oxoisoquinolin-4-yl]phenyl]ethanesulfonamide] | < 500 | < 500 | 500 to 5000 | < 500 | – | – | – | – | – | – | – |
| CCS(=O)(=O)Nc1ccc(Oc2ccc(F)cc2F)c(-c2cn(C)c(=O)cc2F)c1 [Example 139, N-[4-(2,4-difluorophenoxy)-3-(4-fluoro-1-methyl-6-oxopyridin-3-yl)phenyl]ethanesulfonamide] | < 500 | < 500 | > 5000 | < 500 | – | – | – | – | – | – | – |
| CCS(=O)(=O)c1ccc(NCC2CC2)c(-c2ccc(=O)n(C)c2)c1 [Example 473, 5-[2-(cyclopropylmethylamino)-5-ethylsulfonylphenyl]-1-methylpyridin-2-one] | – | – | – | – | – | – | – | < 500 | 500 to 5000 | < 500 | > 5000 |
| Cn1cc(-c2nc(NS(C)(=O)=O)ncc2OCC2CC2)c2c(c1=O)CCCC2 [Example 163, N-[5-(cyclopropylmethoxy)-4-(2-methyl-1-oxo-5,6,7,8-tetrahydroisoquinolin-4-yl)pyrimidin-2-yl]methanesulfonamide] | – | – | – | – | < 500 | 500 to 5000 | > 5000 | < 500 | – | – | – |
| Cc1cc(-c2cc(S(C)(=O)=O)ccc2OC2CCC(F)(F)CC2)cn(C)c1=O [Example 415, 5-[2-(4,4-difluorocyclohexyl)oxy-5-methylsulfonylphenyl]-1,3-dimethylpyridin-2-one] | – | – | – | – | – | – | – | < 500 | < 500 | < 500 | > 5000 |
| CCS(=O)(=O)Nc1ccc(OC2CCOCC2)c(-c2cc(C)c(=O)n(C)c2)c1 [Example 441, N-[3-(1,5-dimethyl-6-oxopyridin-3-yl)-4-(oxan-4-yloxy)phenyl]ethanesulfonamide] | – | – | – | – | – | – | – | < 500 | < 500 | < 500 | > 5000 |
| Cn1cc(-c2cc(CS(C)(=O)=O)ccc2OCC(F)(F)F)n2cncc2c1=O [Example 370, 7-methyl-5-[5-(methylsulfonylmethyl)-2-(2,2,2-trifluoroethoxy)phenyl] imidazo[1,5-a]pyrazin-8-one] | – | – | – | – | 500 to 5000 | 500 to 5000 | > 5000 | < 500 | – | – | – |
| CCS(=O)(=O)Nc1ccc(Cl)c(-c2cn(C)c(=O)c3ccc(F)cc23)c1 [Example 50, N-[4-chloro-3-(6-fluoro-2-methyl-1-oxoisoquinolin-4-yl)phenyl] ethanesulfonamide] | 500 to 5000 | < 500 | 500 to 5000 | < 500 | – | – | – | – | – | – | – |
| COCC1COc2c(cc(S(C)(=O)=O)cc2-c2cn(C)c(=O)c3ccccc23)O1 (stereo not shown) [Example 501, 4-[2-(methoxymethyl)-7-methylsulfonyl-2,3-dihydro-1,4-benzodioxin-5-yl]-2-methylisoquinolin-1-one] | – | – | – | – | – | – | – | < 500 | 500 to 5000 | 500 to 5000 | > 5000 |
| Cc1cc(-c2cc(NS(C)(=O)=O)ccc2OC2CCCOC2)cn(C)c1=O (stereo not shown) [Example 446, N-[3-(1,5-dimethyl-6-oxopyridin-3-yl)-4-(oxan-3-yloxy)phenyl] methanesulfonamide] | – | – | – | – | – | – | – | < 500 | < 500 | < 500 | > 5000 |
| CCS(=O)(=O)c1cccc(-c2cn(C)c(=O)c3cc(F)ccc23)c1 [Example 63, 4-(3-ethylsulfonylphenyl)-7-fluoro-2-methylisoquinolin-1-one] | 500 to 5000 | 500 to 5000 | > 5000 | 500 to 5000 | – | – | – | – | – | – | – |
| Cc1cc(-c2cc(S(C)(=O)=O)ccc2OCC2CC2)cn(C)c1=O [Example 476, 5-[2-(cyclopropylmethoxy)-5-methylsulfonylphenyl]-1,3-dimethylpyridin-2-one] | – | – | – | – | – | – | – | < 500 | 500 to 5000 | < 500 | > 5000 |
| Cn1cc(-c2cn(CS(C)(=O)=O)c(=O)cc2OCC2CC2)c2ccc(F)cc2c1=O [Example 383, 4-[4-(cyclopropylmethoxy)-1-(methylsulfonylmethyl)-6-oxopyridin-3-yl]-7-fluoro-2-methylisoquinolin-1-one] | – | – | – | – | – | – | – | < 500 | 500 to 5000 | < 500 | > 5000 |
| Cn1cc(-c2cc(OCc3ccccc3)cc(S(C)(=O)=O)c2)c2ccoc2c1=O [Example 349, 6-methyl-4-(3-methylsulfonyl-5-phenylmethoxyphenyl)furo[2,3-c]pyridin-7-one] | – | – | – | – | < 500 | < 500 | > 5000 | < 500 | – | – | – |
| Cn1cc(-c2nc(S(C)(=O)=O)ccc2OCC2CC2)c2ccc(F)cc2c1=O [Example 201, 4-[3-(cyclopropylmethoxy)-6-methylsulfonylpyridin-2-yl]-7-fluoro-2-methylisoquinolin-1-one] | – | – | – | – | < 500 | < 500 | > 5000 | < 500 | – | – | – |
| Cn1cc(-c2cc(S(C)(=O)=O)ccc2OCC2CC2)n2cnnc2c1=O [Example 235, 5-[2-(cyclopropylmethoxy)-5-methylsulfonylphenyl]-7-methyl-[1,2,4]triazolo[4,3-a]pyrazin-8-one] | – | – | – | – | > 5000 | > 5000 | > 5000 | > 5000 | – | – | – |
| COc1ccc(S(=O)(=O)CCO)cc1-c1cn(C)c(=O)c2ccc(-c3cnn(C)c3)cc12 [Example 208, 4-[5-(2-hydroxyethylsulfonyl)-2-methoxyphenyl]-2-methyl-6-(1-methylpyrazol-4-yl)isoquinolin-1-one] | – | – | – | – | 500 to 5000 | < 500 | > 5000 | < 500 | – | – | – |
| Cc1cc(-c2cc(NS(C)(=O)=O)ccc2OC2CCC(F)(F)CC2)cn(C)c1=O [Example 447, N-[4-(4,4-difluorocyclohexyl)oxy-3-(1,5-dimethyl-6-oxopyridin-3-yl)phenyl]methanesulfonamide] | – | – | – | – | – | – | – | < 500 | < 500 | < 500 | > 5000 |
| Cn1cc(-c2cc(S(C)(=O)=O)ccc2OCC2CC2)cc(F)c1=O [Example 119, 5-[2-(cyclopropylmethoxy)-5-methylsulfonylphenyl]-3-fluoro-1-methylpyridin-2-one] | 500 to 5000 | 500 to 5000 | > 5000 | 500 to 5000 | – | – | – | – | – | – | – |
| CCS(=O)(=O)c1ccc(Oc2ccc(F)cc2F)c(-c2cn(C)c(=O)c3cncn23)c1 [Example 376, 5-[2-(2,4-difluorophenoxy)-5-ethylsulfonylphenyl]-7-methylimidazo[1,5-a]pyrazin-8-one] | – | – | – | – | – | – | – | < 500 | 500 to 5000 | < 500 | > 5000 |
| Cn1cc(-c2cc(NS(C)(=O)=O)ccc2Oc2ccc(F)cc2F)cc(F)c1=O [Example 271, N-[4-(2,4-difluorophenoxy)-3-(5-fluoro-1-methyl-6-oxopyridin-3-yl)phenyl]methanesulfonamide] | – | – | – | – | < 500 | < 500 | > 5000 | < 500 | – | – | – |
| CN(C)c1cc(-c2cc(NS(C)(=O)=O)ccc2Oc2ccc(F)cc2F)cn(C)c1=O [Example 463, N-[4-(2,4-difluorophenoxy)-3-[5-(dimethylamino)-1-methyl-6-oxopyridin-3-yl]phenyl]methanesulfonamide] | – | – | – | – | – | – | – | < 500 | < 500 | < 500 | > 5000 |
| CN(C)c1cc(-c2cc(S(C)(=O)=O)ccc2OCC2CC2)cn(C)c1=O [Example 474, 5-[2-(cyclopropylmethoxy)-5-methylsulfonylphenyl]-3-(dimethylamino)-1-methylpyridin-2-one] | – | – | – | – | – | – | – | < 500 | < 500 | < 500 | > 5000 |
